Results from ChEMBL document CHEMBL1781986, “Structure-activity relationships of pyrrole based S-nitrosoglutathione reductase inhibitors: pyrrole regioisomers and propionic acid replacement” (Bioorg Med Chem Lett, 2011).
Active and inactive are the calls of the source. The calls are words filed in the database; no cut-off is given here.

What was measured:
[1] = target: T1, 5-hydroxytryptamine receptor 1A (Homo sapiens) (UniProt P08908); experiment: Inhibition of human recombinant 5HT1A receptor at 10 uM by radioligand binding assay
T1 sequence (whole entry): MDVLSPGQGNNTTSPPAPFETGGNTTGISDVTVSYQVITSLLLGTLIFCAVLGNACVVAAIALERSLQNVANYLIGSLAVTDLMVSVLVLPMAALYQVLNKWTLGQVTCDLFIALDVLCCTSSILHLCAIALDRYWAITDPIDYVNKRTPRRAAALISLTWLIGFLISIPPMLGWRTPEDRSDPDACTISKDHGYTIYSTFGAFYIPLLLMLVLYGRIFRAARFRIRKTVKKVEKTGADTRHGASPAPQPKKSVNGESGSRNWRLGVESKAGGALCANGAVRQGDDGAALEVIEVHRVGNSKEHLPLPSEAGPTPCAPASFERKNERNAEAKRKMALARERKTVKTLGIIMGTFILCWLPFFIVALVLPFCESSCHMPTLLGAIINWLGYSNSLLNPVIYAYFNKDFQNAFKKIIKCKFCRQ

[2] = target: D(2) dopamine receptor (Homo sapiens) (UniProt P14416); experiment: Inhibition of human recombinant D2S receptor at 10 uM by radioligand binding assay
D(2) dopamine receptor (Homo sapiens), sequence (P14416 whole entry): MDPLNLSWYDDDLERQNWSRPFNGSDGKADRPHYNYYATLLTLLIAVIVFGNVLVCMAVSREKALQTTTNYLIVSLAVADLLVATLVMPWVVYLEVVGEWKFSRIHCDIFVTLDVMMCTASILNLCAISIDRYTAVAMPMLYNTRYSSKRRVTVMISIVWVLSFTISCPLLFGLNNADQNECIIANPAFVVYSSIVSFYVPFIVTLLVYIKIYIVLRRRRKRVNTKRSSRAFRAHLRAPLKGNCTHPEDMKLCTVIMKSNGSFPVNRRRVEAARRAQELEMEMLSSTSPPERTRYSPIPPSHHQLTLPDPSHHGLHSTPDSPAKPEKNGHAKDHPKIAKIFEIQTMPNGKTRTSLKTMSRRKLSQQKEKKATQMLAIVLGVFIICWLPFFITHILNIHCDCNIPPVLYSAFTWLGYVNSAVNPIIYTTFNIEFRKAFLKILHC

[3] = target: Vasopressin V1a receptor (Homo sapiens) (UniProt P37288); experiment: Inhibition of human recombinant V1a receptor at 10 uM by radioligand binding assay
Vasopressin V1a receptor (Homo sapiens), sequence (P37288 whole entry, looked up): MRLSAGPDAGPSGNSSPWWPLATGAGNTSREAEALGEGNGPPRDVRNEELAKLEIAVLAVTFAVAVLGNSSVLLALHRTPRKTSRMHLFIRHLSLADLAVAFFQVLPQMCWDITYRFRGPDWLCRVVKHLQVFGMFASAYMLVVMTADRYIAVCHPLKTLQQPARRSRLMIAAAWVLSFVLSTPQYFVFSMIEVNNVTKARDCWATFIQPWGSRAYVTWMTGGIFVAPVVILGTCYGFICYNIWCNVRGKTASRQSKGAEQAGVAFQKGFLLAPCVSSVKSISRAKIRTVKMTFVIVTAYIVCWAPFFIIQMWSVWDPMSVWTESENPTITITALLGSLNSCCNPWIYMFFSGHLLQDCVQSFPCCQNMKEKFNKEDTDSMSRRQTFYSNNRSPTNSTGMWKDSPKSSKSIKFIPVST

[4] = target: T2, C-X-C chemokine receptor type 2 (Homo sapiens) (UniProt P25025); experiment: Inhibition of human recombinant CXCR2 receptor at 10 uM by radioligand binding assay
T2 sequence (whole entry): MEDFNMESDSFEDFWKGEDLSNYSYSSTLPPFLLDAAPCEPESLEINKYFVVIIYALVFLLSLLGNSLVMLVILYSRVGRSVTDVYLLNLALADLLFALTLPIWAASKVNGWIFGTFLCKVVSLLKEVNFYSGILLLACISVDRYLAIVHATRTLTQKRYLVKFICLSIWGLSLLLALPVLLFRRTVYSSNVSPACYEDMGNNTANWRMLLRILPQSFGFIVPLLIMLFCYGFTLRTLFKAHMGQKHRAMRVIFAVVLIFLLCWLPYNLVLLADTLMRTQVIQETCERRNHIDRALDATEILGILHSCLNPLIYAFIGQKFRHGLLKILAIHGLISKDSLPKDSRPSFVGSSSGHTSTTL

[5] = target: 5-hydroxytryptamine receptor 7 (Homo sapiens) (UniProt P34969); experiment: Inhibition of human recombinant 5HT7 receptor at 10 uM by radioligand binding assay
5-hydroxytryptamine receptor 7 (Homo sapiens), sequence (P34969 whole entry): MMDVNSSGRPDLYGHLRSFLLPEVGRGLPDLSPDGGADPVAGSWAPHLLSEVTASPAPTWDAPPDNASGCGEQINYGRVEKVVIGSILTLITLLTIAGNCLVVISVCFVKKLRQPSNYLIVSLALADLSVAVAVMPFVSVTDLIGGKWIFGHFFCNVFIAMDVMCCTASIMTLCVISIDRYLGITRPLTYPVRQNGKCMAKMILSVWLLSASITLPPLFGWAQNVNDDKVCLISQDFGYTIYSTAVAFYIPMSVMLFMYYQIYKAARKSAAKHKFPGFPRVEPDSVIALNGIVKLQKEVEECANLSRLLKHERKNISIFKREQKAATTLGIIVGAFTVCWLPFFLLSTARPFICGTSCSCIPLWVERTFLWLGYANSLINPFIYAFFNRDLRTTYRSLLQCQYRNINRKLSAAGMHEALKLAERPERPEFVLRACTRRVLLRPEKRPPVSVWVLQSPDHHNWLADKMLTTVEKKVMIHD

[6] = target: Sodium-dependent noradrenaline transporter (Homo sapiens) (UniProt P23975); experiment: Inhibition of human recombinant NET at 10 uM by radioligand binding assay
Sodium-dependent noradrenaline transporter (Homo sapiens), sequence (P23975 whole entry): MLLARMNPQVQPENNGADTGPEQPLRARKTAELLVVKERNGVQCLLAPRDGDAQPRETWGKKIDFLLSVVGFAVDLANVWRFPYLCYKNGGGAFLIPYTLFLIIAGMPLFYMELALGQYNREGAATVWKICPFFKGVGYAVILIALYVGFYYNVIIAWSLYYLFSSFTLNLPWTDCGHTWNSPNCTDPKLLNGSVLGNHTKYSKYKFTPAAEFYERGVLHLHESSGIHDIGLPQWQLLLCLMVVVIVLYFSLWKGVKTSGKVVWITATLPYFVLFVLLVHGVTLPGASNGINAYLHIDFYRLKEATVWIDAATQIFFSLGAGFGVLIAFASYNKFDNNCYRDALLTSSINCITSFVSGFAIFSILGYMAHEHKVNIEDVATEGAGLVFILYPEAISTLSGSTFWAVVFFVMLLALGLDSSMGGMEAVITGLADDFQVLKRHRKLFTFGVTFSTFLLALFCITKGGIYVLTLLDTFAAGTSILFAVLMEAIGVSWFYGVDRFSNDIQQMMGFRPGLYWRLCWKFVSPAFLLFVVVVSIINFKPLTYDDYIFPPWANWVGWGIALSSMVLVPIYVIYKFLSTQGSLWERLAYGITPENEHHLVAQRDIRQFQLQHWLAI

[7] = target: Muscarinic acetylcholine receptor M3 (Homo sapiens) (UniProt P20309); experiment: Inhibition of human recombinant M3 receptor at 10 uM by radioligand binding assay
Muscarinic acetylcholine receptor M3 (Homo sapiens), sequence (P20309 whole entry, looked up): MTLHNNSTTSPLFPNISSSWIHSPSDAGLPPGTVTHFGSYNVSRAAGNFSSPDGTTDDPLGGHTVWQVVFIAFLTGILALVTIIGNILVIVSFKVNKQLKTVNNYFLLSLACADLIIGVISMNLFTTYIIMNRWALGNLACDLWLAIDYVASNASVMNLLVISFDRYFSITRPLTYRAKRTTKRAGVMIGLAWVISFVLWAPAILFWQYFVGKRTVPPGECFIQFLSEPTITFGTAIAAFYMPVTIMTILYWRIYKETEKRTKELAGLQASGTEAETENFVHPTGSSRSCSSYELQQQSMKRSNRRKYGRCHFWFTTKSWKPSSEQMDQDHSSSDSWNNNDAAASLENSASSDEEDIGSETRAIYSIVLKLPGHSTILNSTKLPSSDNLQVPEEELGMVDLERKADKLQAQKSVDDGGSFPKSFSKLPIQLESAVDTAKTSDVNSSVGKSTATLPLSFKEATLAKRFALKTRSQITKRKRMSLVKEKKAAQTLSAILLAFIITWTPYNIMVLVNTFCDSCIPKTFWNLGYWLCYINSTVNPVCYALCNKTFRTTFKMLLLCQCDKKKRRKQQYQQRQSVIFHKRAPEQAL

[8] = target: T3, Muscarinic acetylcholine receptor M1 (Homo sapiens) (UniProt P11229); experiment: Inhibition of human recombinant M1 receptor at 10 uM by radioligand binding assay
T3 sequence (whole entry): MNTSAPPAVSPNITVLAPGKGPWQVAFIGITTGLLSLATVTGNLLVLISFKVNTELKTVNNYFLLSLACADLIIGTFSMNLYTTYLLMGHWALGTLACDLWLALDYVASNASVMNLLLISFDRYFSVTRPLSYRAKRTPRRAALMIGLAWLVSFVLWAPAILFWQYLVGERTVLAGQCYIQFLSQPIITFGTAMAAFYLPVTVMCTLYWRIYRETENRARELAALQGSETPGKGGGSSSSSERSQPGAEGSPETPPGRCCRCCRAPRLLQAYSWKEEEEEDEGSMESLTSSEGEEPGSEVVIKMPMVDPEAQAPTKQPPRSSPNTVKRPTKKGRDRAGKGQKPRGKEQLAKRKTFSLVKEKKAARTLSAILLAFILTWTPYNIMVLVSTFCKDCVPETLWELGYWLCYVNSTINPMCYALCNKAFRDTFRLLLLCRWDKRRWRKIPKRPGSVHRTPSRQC

[9] = test system: A549; experiment: Cytotoxicity against human A549 cells; assay type: functional, cell-based

Row | SMILES | inhibition [1] | inhibition [2] | inhibition [3] | inhibition [4] | inhibition [5] | inhibition [6] | inhibition [7] | inhibition [8] | IC50 [9] [µM]
1 | COc1ccc(-c2ccn(-c3ccc(C(=O)O)c(O)c3)c2-c2ccc(C(N)=O)cc2C)cc1 | Active | Active | Active | Active | Active | Active | Active | Active | –
2 | Cc1cc(C(N)=O)ccc1-c1c(CCC(=O)O)ccn1-c1ccc(-n2ccnc2)cc1 | inactive | inactive | inactive | inactive | inactive | inactive | inactive | inactive | > 250
3 | COc1ccc(-c2ccn(-c3ccc(O)c([N+](=O)[O-])c3)c2-c2ccc(C(N)=O)cc2C)cc1 | Active | Active | Active | Active | Active | Active | Active | Active | –
4 | Cc1cc(C(N)=O)ccc1-c1c(-c2ccc(-n3ccnc3)cc2)ccn1CCC(=O)O | inactive | inactive | inactive | inactive | inactive | inactive | inactive | inactive | –
5 | Cc1cc(C(N)=O)ccc1-n1c(CCC(=O)O)ccc1-c1ccc(-n2ccnc2)cc1 [N6022] | inactive | inactive | inactive | inactive | inactive | inactive | inactive | inactive | –
